Key:
[1] = clinical trials (Gerson et al. 2009); cited from earlier work
[2] = Bulk density, tap density and compressibility of powders; type: physicochemical; conditions: major component of Example 15 blend
[3] = dosed either orally or directly into the colon of a mammal; cited from earlier work
[4] = Particle size of compound (1) lots, wet and dry method; type: physicochemical
[5] = FLODEX powder flowability (Flodex); type: physicochemical; conditions: for Flowdex: crystalline compound (1) lot, Table 2; for Flodex: neat powder, listed as Compound (1)
Description: The flow of dry powders was characterized using a FLODEX™ Powder Flowability Index Test Instrument (Hanson Research Corporation, Chatsworth, Calif.). The instrument was equipped with a cylindrical metal reservoir, which holds the test powder prior to flow testing. The cylindrical reservoir has an inside diameter of 5.7 cm and a length of […]. The bottom end of the reservoir can be closed with removable metal discs. Each disc has a round orifice centered in the disc. Orifice diameters range from 4 mm to 10 mm in 1 mm increments, and from 10 mm to 34 mm in 2 mm increments. Prior to flow testing, the orifice is blocked. Powder is then placed over the blocked orifice. When the orifice is unblocked, powder can flow through the orifice under the force of gravity if the orifice diameter is sufficiently large. Powder that flows through small orifices is considered to have flow properties useful for tableting. For example, a Flodex measurement (Flodex) of less than about 24 mm is […] high-speed tableting operations at commercial scale. A Flodex less than about 20 mm is useful for high-speed tableting operations. A Flodex of 18 mm or less is considered especially useful for high speed tableting operations.
The Flodex is determined by first gently filling the reservoir with approximately 70 cc of test powder while the orifice at the bottom is blocked, while avoiding severe piling, and without vibrating or tapping the powder bed. Next, the orifice is unblocked. This can be accomplished by opening a shutter that is supplied with the instrument. Alternatively, if a shutter is not used, the powder-filled reservoir fitted with a disc can be set on a dry, flat surface to block the orifice. Then, slowly and evenly, the reservoir is lifted to allow the powders to flow. In either procedure, if the powder flows through the orifice, a clear channel is left within the powder bed. […] The flow test is conducted with various orifice sizes until the minimum orifice size for good flow is identified, which is referred to as the Flodex.

| Bulk Density [2] | Particle size, Dry method, dv0.5 [4] | Particle size, Dry method, dv0.9 [4] | Particle size, Wet method, dv0.5 [4] | Particle size, Wet method, dv0.9 [4] | Flowdex [5] | Flodex ([5]; Lot 70) | Flodex ([5]; Lot 71) | Flodex ([5]; Lot 4) | SMILES | reflux episodes [1] | bioavailability as R-baclofen [3] |
| --- | --- | --- | --- | --- | --- | --- | --- | --- | --- | --- | --- |
| 0.15 g/cc | – | – | – | – | – | – | – | – | CC(C)C(=O)O[C@@H](OC(=O)NC[C@H](CC(=O)O)c1ccc(Cl)cc1)C(C)C [Compound (1), (3R)-4-{[(1S)-2-Methyl-1-(2-methylpropanoyloxy)propoxy]carbonylamino}-3-(4-chlorophenyl)butanoic acid] | reduce reflux episodes | high bioavailability |
| – | 27.53 μm | 106.87 μm | 4.81 μm | 37.2 μm | 26 mm | 26 mm | – | – | CC(C)C(=O)O[C@@H](OC(=O)NC[C@H](CC(=O)O)c1ccc(Cl)cc1)C(C)C [Lot 70, (3R)-4-{[(1S)-2-Methyl-1-(2-methylpropanoyloxy)propoxy]carbonylamino}-3-(4-chlorophenyl)butanoic acid] | – | – |
| – | 17.64 μm | 107.48 μm | 22.17 μm | 63.02 μm | 26 mm | – | 26 mm | – | CC(C)C(=O)O[C@@H](OC(=O)NC[C@H](CC(=O)O)c1ccc(Cl)cc1)C(C)C [Lot 71, (3R)-4-{[(1S)-2-Methyl-1-(2-methylpropanoyloxy)propoxy]carbonylamino}-3-(4-chlorophenyl)butanoic acid] | – | – |
| – | 11.09 μm | 102 μm | 3.35 μm | 40.47 μm | 23 mm | – | – | 24 mm | CC(C)C(=O)O[C@@H](OC(=O)NC[C@H](CC(=O)O)c1ccc(Cl)cc1)C(C)C [Lot 4, (3R)-4-{[(1S)-2-Methyl-1-(2-methylpropanoyloxy)propoxy]carbonylamino}-3-(4-chlorophenyl)butanoic acid] | – | – |

From patent publication US10071068B2, “Sustained release oral dosage forms of an R-baclofen prodrug” (XENOPORT, INC., priority 2009, dated 2018)
